Earlier results in patent publication US20230364135A1, “GUT-SELECTIVE SEQUESTERING AGENTS FOR THE TREATMENT AND PREVENTION OF AUTISM AND RELATED DISORDERS” (Axial Biotherapeutics, Inc., priority 2017, published 2023).

System: naïve, wild-type mice
Settings: single bolus injection intraperitoneally

symptoms of anxiety: engendered symptoms of anxiety
Structure (SMILES): CCc1ccc(OS(=O)(=O)[O-])cc1.[K+] [4-EPS, 4-ethylphenylsulfate]
core symptoms of autism spectrum disorder: did not engender any core symptoms of autism spectrum disorder
